Reference: patent US10975119B2, “Selective cysteine protease inhibitors and uses thereof” (Genesis Technologies Limited, priority 2011, dated 2021)
Where two headings read alike, the source gives them in different places.

What was measured:
Assay type in all cases: biochemical
Caspase-1 = molecular target: T1, Caspase-1 (Homo sapiens, UniProt P29466); assay: Caspase-1 inhibitor screening assay (BioVision kit, YVAD-AFC); details: for inhibition at 10 µM: read-out: % Inhibition at 10 uM Casp1; for inhibition at 100 µM: read-out: % Inhibition at 100 uM Casp1
T1 construct: mixing the compounds with the respective active caspases; purchased BioVision K151-100
T1 sequence (P29466 120-297 limits assumed): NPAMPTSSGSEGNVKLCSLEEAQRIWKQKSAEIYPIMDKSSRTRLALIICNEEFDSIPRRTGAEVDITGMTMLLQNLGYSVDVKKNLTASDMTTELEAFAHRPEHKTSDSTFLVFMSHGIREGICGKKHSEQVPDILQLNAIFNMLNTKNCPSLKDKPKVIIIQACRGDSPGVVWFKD
T1 sequence (P29466 317-404 limits assumed): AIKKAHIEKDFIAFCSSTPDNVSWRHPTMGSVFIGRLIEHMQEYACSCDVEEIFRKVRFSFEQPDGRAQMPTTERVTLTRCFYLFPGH
Description: (§1) The efficacy of an array of compounds as an inhibitor of the activity of Caspases 1 through 10 were assessed by using the respective Caspase Inhibitor Drug Screening Kits (Caspase-1 Catalog #: K151-100, Caspase-2 Catalog #: K152-100, Caspase-3 Catalog #: K153-100, Caspase-4 Catalog #: K154-100, Caspase-5 Catalog #: K155-100, Caspase-6 Catalog #: K156-100, Caspase-7 Catalog #: K157-100, Caspase-8 Catalog #: K158-100, Caspase-9 Catalog #: K159-100, Caspase-10 Catalog #: K160-100, BioVision) following the instructions of the manufacturer. […] Active caspases cleaved their respective synthetic substrates to release free AFC, which was then quantified by fluorometry.
(§2) Briefly, the compounds were first tested at 2 concentrations (10 uM and 100 uM final) to determine if there is a hit. […] Each condition was tested in duplicates. […] For some samples, a smaller range of concentrations was tested depending on the % Inhibition results at 10 uM and 100 uM. Results were summarized in Tables 2, 3, and 4 herein after. Table 2 represents the IC50 values (uM) of the test compounds as inhibitors of the activity of the various caspases.
(§3) (*) RFU (no inhibitor control)—RFU (compound at a specific concentration)
(§4) RFU (no inhibitor control)

Caspase-3 = molecular target: T2, Caspase-3 (Homo sapiens, UniProt P42574); assay: Caspase-3 inhibitor screening assay (BioVision kit, DEVD-AFC); details: for inhibition at 10 µM: read-out: % Inhibition at 10 uM Casp3; for inhibition at 100 µM: read-out: % Inhibition at 100 uM Casp3; for IC50: read-out: IC50 Casp3
T2 construct: mixing the compounds with the respective active caspases; purchased BioVision K153-100
T2 sequence (P42574 29-175 limits assumed): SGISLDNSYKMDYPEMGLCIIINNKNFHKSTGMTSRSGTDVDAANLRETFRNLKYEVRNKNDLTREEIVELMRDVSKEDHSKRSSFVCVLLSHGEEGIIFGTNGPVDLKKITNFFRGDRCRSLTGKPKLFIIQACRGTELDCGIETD
T2 sequence (P42574 176-277 limits assumed): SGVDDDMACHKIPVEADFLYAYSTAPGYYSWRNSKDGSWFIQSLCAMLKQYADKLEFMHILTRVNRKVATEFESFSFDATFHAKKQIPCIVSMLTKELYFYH
Description: as §1, §2, §3, §4

Caspase-5 = molecular target: T3, Caspase-5 (Homo sapiens, UniProt P51878); assay: Caspase-5 inhibitor screening assay (BioVision kit, WEHD-AFC); details: for inhibition at 10 µM: read-out: % Inhibition at 10 uM Casp5; for inhibition at 100 µM: read-out: % Inhibition at 100 uM Casp5
T3 construct: mixing the compounds with the respective active caspases; purchased BioVision K155-100
T3 sequence (P51878 137-327 limits assumed): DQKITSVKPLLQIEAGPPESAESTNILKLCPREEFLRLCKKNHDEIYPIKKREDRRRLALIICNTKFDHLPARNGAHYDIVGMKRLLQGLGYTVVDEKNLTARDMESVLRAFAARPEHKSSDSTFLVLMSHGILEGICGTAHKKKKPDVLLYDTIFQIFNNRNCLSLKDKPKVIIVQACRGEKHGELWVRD
T3 sequence (P51878 347-434 limits assumed): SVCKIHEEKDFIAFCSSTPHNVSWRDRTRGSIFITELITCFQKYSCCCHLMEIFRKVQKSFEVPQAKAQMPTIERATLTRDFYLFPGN
Description: as §1, §2, §3, §4

Caspase-6 = molecular target: T4, Caspase-6 (Homo sapiens, UniProt P55212); assay: Caspase-6 inhibitor screening assay (BioVision kit, VEID-AFC); details: for inhibition at 10 µM: read-out: % Inhibition at 10 uM Casp6; for inhibition at 100 µM: read-out: % Inhibition at 100 uM Casp6; for IC50: read-out: IC50 Casp6
T4 construct: mixing the compounds with the respective active caspases; purchased BioVision K156-100
T4 sequence (P55212 24-179 limits assumed): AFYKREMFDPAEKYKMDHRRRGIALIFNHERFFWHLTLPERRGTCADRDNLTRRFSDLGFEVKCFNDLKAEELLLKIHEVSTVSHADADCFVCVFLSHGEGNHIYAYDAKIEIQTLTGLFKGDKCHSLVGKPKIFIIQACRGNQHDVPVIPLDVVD
T4 sequence (P55212 194-293 limits assumed): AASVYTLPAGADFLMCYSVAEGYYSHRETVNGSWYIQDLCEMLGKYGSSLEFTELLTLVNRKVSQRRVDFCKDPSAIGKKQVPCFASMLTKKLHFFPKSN
Description: as §1, §2, §3, §4

Caspase-7 = molecular target: T5, Caspase-7 (Homo sapiens, UniProt P55210); assay: Caspase-7 inhibitor screening assay (BioVision kit, DEVD-AFC); details: for inhibition at 10 µM: read-out: % Inhibition at 10 uM Casp7; for inhibition at 100 µM: read-out: % Inhibition at 100 uM Casp7; for IC50: read-out: IC50 Casp7
T5 construct: mixing the compounds with the respective active caspases; purchased BioVision K157-100
T5 sequence (P55210 24-198 limits assumed): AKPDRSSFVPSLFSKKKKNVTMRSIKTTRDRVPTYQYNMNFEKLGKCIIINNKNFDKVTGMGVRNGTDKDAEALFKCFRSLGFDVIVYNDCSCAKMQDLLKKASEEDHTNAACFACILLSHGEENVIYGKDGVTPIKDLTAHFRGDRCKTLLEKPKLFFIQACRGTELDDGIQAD
T5 sequence (P55210 207-303 limits assumed): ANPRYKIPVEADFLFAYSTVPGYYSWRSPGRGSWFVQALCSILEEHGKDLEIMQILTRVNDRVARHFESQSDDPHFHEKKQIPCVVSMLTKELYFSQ
Description: as §1, §2, §3, §4

Caspase-8 = molecular target: T6, Caspase-8 (Homo sapiens, UniProt Q14790); assay: Caspase-8 inhibitor screening assay (BioVision kit, IETD-AFC); details: for inhibition at 10 µM: read-out: % Inhibition at 10 uM Casp8; for inhibition at 100 µM: read-out: % Inhibition at 100 uM Casp8; for IC50: read-out: IC50 Casp8
T6 construct: mixing the compounds with the respective active caspases; purchased BioVision K158-100
T6 sequence (Q14790 217-374 limits assumed): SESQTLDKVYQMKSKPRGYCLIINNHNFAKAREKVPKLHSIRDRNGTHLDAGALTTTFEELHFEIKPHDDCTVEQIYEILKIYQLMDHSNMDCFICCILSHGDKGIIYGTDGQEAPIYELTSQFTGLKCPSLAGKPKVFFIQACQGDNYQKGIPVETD
T6 sequence (Q14790 385-479 limits assumed): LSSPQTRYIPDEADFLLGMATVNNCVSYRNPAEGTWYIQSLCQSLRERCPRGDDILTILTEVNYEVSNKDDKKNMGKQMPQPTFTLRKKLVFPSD
Description: as §1, §2, §3, §4

Caspase-10 = molecular target: T7, Caspase-10 (Homo sapiens, UniProt Q92851); assay: Caspase-10 inhibitor screening assay (BioVision kit, AEVD-AFC); details: for inhibition at 10 µM: read-out: % Inhibition at 10 uM Casp10; for inhibition at 100 µM: read-out: % Inhibition at 100 uM Casp10; for IC50: read-out: IC50 Casp10
T7 construct: mixing the compounds with the respective active caspases; purchased BioVision K160-100
T7 sequence (Q92851 220-415 limits assumed): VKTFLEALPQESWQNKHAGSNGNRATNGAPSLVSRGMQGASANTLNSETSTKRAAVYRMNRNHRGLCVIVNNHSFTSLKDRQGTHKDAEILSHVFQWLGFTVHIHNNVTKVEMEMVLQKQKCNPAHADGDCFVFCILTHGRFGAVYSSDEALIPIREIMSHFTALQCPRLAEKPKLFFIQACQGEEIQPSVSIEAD
T7 sequence (Q92851 416-521 limits assumed): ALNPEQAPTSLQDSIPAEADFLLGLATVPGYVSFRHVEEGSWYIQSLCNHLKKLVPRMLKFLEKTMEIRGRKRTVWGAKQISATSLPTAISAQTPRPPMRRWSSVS
Description: as §1, §2, §3, §4

inhibition at 10 µM (Caspase-1)	inhibition at 100 µM (Caspase-1)	IC50 (Caspase-1; read-out: IC50 Casp1)	inhibition at 10 µM (Caspase-3)	inhibition at 100 µM (Caspase-3)	IC50 (Caspase-3)	inhibition at 10 µM (Caspase-5)	inhibition at 100 µM (Caspase-5)	inhibition at 10 µM (Caspase-6)	inhibition at 100 µM (Caspase-6)	IC50 (Caspase-6)	inhibition at 10 µM (Caspase-7)	inhibition at 100 µM (Caspase-7)	IC50 (Caspase-7)	inhibition at 10 µM (Caspase-8)	inhibition at 100 µM (Caspase-8)	IC50 (Caspase-8)	inhibition at 10 µM (Caspase-10)	inhibition at 100 µM (Caspase-10)	IC50 (Caspase-10)	other results	SMILES
98%	100%	0.04 µM	1%	1%	> 100 µM	86%	99%	0%	3%	> 100 µM	0%	2%	> 100 µM	0%	22%	> 100 µM	3%	74%	56 µM	IC50 (Caspase-1; read-out: potency (IC50) against caspase-1): 0.042 µM; IC50 (Caspase-5; read-out: potency (IC50) against caspase-5): 2.32 µM	CC(C)(C)[C@H](NC(=O)c1ccc2ccccc2n1)C(=O)N1CCC[C@@H]1C(=O)N[C@H](/C=C/S(C)(=O)=O)CC(=O)O [Compound 6, 2-Quinoline carbonyl-t-Leu-pro-Asp methyl vinyl sulfone]
0%	0%	> 100 µM	5%	30%	> 100 µM	0%	10%	0%	0%	> 100 µM	3%	19%	> 100 µM	5%	14%	> 100 µM	26%	35%	> 100 µM	IC50 (Caspase-5; read-out: IC50 Casp5): > 100 µM	CC(C)[C@H](NC(=O)c1ccc2ccccc2n1)C(=O)N[C@H](/C=C/S(C)(=O)=O)CC(=O)O [Compound 16, 2-Quinoline carbonyl-Val-Asp methyl vinyl sulfone]
1%	1%	> 100 µM	4%	2%	> 100 µM	0%	1%	0%	8%	> 100 µM	0%	7%	> 100 µM	0%	0%	> 100 µM	14%	0%	> 100 µM	IC50 (Caspase-5; read-out: IC50 Casp5): > 100 µM	CS(=O)(=O)/C=C/[C@H](CC(=O)O)NC(=O)[C@H](CCC(=O)O)NC(=O)c1ccc2ccccc2n1 [Compound 18, 2-Quinoline carbonyl-Glu-Asp methyl vinyl sulfone]
